Structures are written as SMILES.

Consider 34 compounds from ChEMBL document CHEMBL1157539, “Thousands of chemical starting points for antimalarial lead identification” (Nature, 2010).

This assay relates to Plasmodium falciparum. Description: GSK_TCMDC: Inhibition of Plasmodium falciparum 3D7 in whole erythrocytes, using parasite LDH activity as an index of growth. The assay is classed as functional, organism-based. Particulars: Plasmodium falciparum, 3D7.
Consider `Nc1cc(/C=C/c2ccc([N+](=O)[O-])s2)nc2ccccc12`, for which the XC50 was found to be 760 nM.

As to `CCN(CC)CCN(Cc1ccc(-c2ccc(C(F)(F)F)cc2)cc1)C(=O)Cn1c(CCc2ccccc2F)nc(=O)c2ccccc21`, the XC50 turned out to be 934 nM. The same measure for `Oc1ccc(Nc2ccnc3cc(Cl)ccc23)cc1`: 744 nM; for `Oc1ccc(C2CNCCc3c2cc(O)c(OCc2ccccc2)c3Cl)cc1` (centres undefined): 716 nM. Take `Cc1cc(Nc2cc(Cl)cc(Cl)c2)nc(N)n1`: the XC50 was 1140 nM.

For `COc1ccc(CC(=O)NC(CCN2CCC3(CC2)CN(S(C)(=O)=O)c2ccccc23)c2ccc(Cl)c(Cl)c2)cc1OC` (centres undefined), the XC50 was 998 nM. As to `Fc1ccc2ncc(Cl)c(CCN3CCC(NCc4cc5c(cn4)OCCO5)CC3)c2c1`, the XC50 was found to be 884 nM. For `CC1CN(c2cccc3c2nc(-c2cncc(C#N)c2)n3CCNCc2ccccc2)CC(C)O1` (centres undefined), the XC50 is 1220 nM. With `CCNc1cc(C(=O)N[C@@H](Cc2cccc(F)c2)[C@H](O)CNC(C)CCCC(C)C)cc(N2CCCCS2(=O)=O)c1` (some centres undefined) the figure was 596 nM; with `Oc1ccc(CCCNc2nc(NCc3cccc4ccccc34)nc(N3CCNCC3)n2)cc1`, 808 nM; with `COc1cccc(-c2cc(C(=O)NC3CCC(N4CCC(c5ccccc5C)CC4)CC3)[nH]n2)c1` (centres undefined), 1120 nM. Turning to `COc1ccccc1CC(C)NCC(O)c1cccc(Cl)c1` (centres undefined), the XC50 was found to be 811 nM. As for `O=C(/C=C/c1ccccc1Cl)NC1CCC(CN2C3CCC2CC(c2c[nH]c4ccccc24)C3)CC1` (centres undefined), the XC50 was 706 nM. `CN(C)c1ccc2c(c1)Sc1cc(N(C)C)ccc1N2C(=O)c1cccc(C(=O)O)c1` returned an XC50 of 184 nM.

As for `O=S(=O)(c1cc(Cl)ccc1Cl)N1CCCCC(c2ccc(C(F)(F)F)cc2)=N1`, the XC50 is 998 nM. As to `CNC(=O)c1cncc(/C=C/c2ccccc2S(N)(=O)=O)c1`, the XC50 came to 694 nM.

With `COc1ccc(N2CCN(CCCC/C=C/c3ccc(NC(=O)c4cc(Cl)cc(Cl)c4)cc3)CC2)c(OC)c1`, the XC50 turned out to be 660 nM. With `CC=CC1CCNC(C(O)c2ccnc3ccc(OC)cc23)C1` (centres undefined), the XC50 was 1090 nM. With `CCCCCCCCN1CCN(CCCCCCNc2c3ccccc3nc3ccccc23)CC1` the figure was 162 nM; with `Cc1ccc2[nH]c(NC#N)nc2c1`, 1150 nM; with `CN1CCCC(CN2CCN(Cc3cccc(-c4ccc(-c5nc6ccccc6[nH]5)s4)c3)CC2)C1` (centres undefined), 149 nM. For `Cc1ccc(CNC(=O)[C@H](Cc2ccccc2)Nc2cc(C)nc(Nc3ccccc3)n2)cc1`, the XC50 amounted to 853 nM.

The compound `O=C(c1ccc([N+](=O)[O-])o1)N1CCC(c2cn(Cc3cccc(F)c3)c3ccccc23)CC1` displayed an XC50 of 637 nM. Take `CC(Nc1nc(Nc2ccc(F)cc2)nc(SCC(N)=O)n1)c1ccccc1` (centres undefined): the XC50 was found to be 496 nM.

With `Cc1c(CC(=O)NCCC2CCN(CCCCCNC(=O)/C=C/c3ccc(Cl)c(Cl)c3)CC2)sc2ccc(Cl)cc12`, the XC50 stood at 880 nM.

With `CN1C(C)(C)CC(NC(=O)c2ccc(-c3cc4cc(Cl)c(Cl)cc4[nH]3)o2)CC1(C)C`, the XC50 was 1120 nM.

The compound `C(=N\Nc1nccc2sc(-c3cccnc3)cc12)/c1cccnc1` registered an XC50 of 423 nM.

`Cc1noc(C)c1-c1cccc(CNCc2cccc(-c3ccc(-c4nc5cc(C(F)(F)F)ccc5[nH]4)s3)c2)c1`: the XC50 came out at 166 nM. `Cc1ncccc1C(=O)Nc1ccc(-c2cccc(-c3nc4cccc(C)c4[nH]3)c2)cc1`: the XC50 is 733 nM. In the case of `CC(Cc1ccc(OCCN2CCN(c3cccc(C(F)(F)F)c3)CC2)cc1)NCC(O)c1cccc(C(F)(F)F)c1` (centres undefined), the XC50 is 181 nM. With `Cc1ccc(O)cc1Nc1ccnc2ccc(-c3cccc(CN(C)C)c3)cc12` the figure was 515 nM; with `Cc1nc(Nc2cc(Cl)ccc2O)nc(Nc2cc(Cl)ccc2O)c1[N+](=O)[O-]`, 29.4 nM; with `Cn1c(Nc2cc(C(C)(C)C)on2)nc2cc(Nc3ccnc(Nc4ccc(CS(C)(=O)=O)cc4)n3)ccc21`, 977 nM. As to `COc1ccc(C2CC(c3ccccc3O)=NN2C(=O)c2ccco2)cc1OC` (centres undefined), the XC50 came out at 947 nM.
